Values joined by “and” are separate entries in the source; they are usually repeats but may differ in a detail not shown here. Equal entries are not always repeated.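 Cultured in 96-well plates, cells were exposed to test compound for 48 hours across five concentrations. The concentration for 50% growth inhibition is given as GI50. TGI is the concentration that stops growth completely.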
Tests used:
Test in all cases: NCI anticancer screen, dose series, 48 h
786-0 renal = tested on: 786-0 renal
BT-549 breast = tested on: BT-549 breast
MCF7 breast = tested on: MCF7 breast
RPMI-8226 leukemia = tested on: RPMI-8226 leukemia
SNB-19 CNS = tested on: SNB-19 CNS
PC-3 prostate = tested on: PC-3 prostate
HCT-116 colon = tested on: HCT-116 colon
SF-295 CNS = tested on: SF-295 CNS
SK-OV-3 ovarian = tested on: SK-OV-3 ovarian
TK-10 renal = tested on: TK-10 renal
DU-145 prostate = tested on: DU-145 prostate
UACC-62 melanoma = tested on: UACC-62 melanoma
SN12C renal = tested on: SN12C renal
UACC-257 melanoma = tested on: UACC-257 melanoma
HS 578T breast = tested on: HS 578T breast
RXF 393 renal = tested on: RXF 393 renal
IGROV1 ovarian = tested on: IGROV1 ovarian
U251 CNS = tested on: U251 CNS
KM12 colon = tested on: KM12 colon
LOX IMVI melanoma = tested on: LOX IMVI melanoma
A549 NSCLC = tested on: A549 NSCLC
HOP-62 NSCLC = tested on: HOP-62 NSCLC
T-47D breast = tested on: T-47D breast
OVCAR-4 ovarian = tested on: OVCAR-4 ovarian
OVCAR-8 ovarian = tested on: OVCAR-8 ovarian
HCC-2998 colon = tested on: HCC-2998 colon
M14 melanoma = tested on: M14 melanoma
NCI-H23 lung = tested on: NCI-H23 lung
SF-539 CNS = tested on: SF-539 CNS
SNB-75 CNS = tested on: SNB-75 CNS
SK-MEL-28 melanoma = tested on: SK-MEL-28 melanoma
MDA-MB-231 breast = tested on: MDA-MB-231 breast
MOLT-4 leukemia = tested on: MOLT-4 leukemia
CAKI-1 renal = tested on: CAKI-1 renal
SK-MEL-5 melanoma = tested on: SK-MEL-5 melanoma
CCRF-CEM leukemia = tested on: CCRF-CEM leukemia
MALME-3M melanoma = tested on: MALME-3M melanoma
SR leukemia = tested on: SR leukemia
UO-31 renal = tested on: UO-31 renal
OVCAR-5 ovarian = tested on: OVCAR-5 ovarian
K-562 leukemia = tested on: K-562 leukemia
ACHN renal = tested on: ACHN renal
HT29 colon = tested on: HT29 colon
SW-620 colon = tested on: SW-620 colon
NCI-H226 lung = tested on: NCI-H226 lung
HOP-92 NSCLC = tested on: HOP-92 NSCLC
EKVX NSCLC = tested on: EKVX NSCLC
MDA-N = tested on: MDA-N
NCI-H460 lung = tested on: NCI-H460 lung
HL-60(TB) leukemia = tested on: HL-60(TB) leukemia
OVCAR-3 ovarian = tested on: OVCAR-3 ovarian
SK-MEL-2 melanoma = tested on: SK-MEL-2 melanoma
A498 renal = tested on: A498 renal
NCI-H522 lung = tested on: NCI-H522 lung
SF-268 CNS = tested on: SF-268 CNS
HCT-15 colon = tested on: HCT-15 colon
COLO 205 colon = tested on: COLO 205 colon
NCI/ADR-RES ovarian = tested on: NCI/ADR-RES ovarian
MDA-MB-435 = tested on: MDA-MB-435

Cc1c(C#N)c(N)n(C2OC(CO)C(O)C(O)C2O)c(=S)c1C#N (centres undefined) was tested, and the TGI (786-0 renal) was over 100 µM, the GI50 (BT-549 breast) was 18.5 µM and > 100 µM and the TGI (BT-549 breast) was 68.6 µM and > 100 µM. The TGI (MCF7 breast) was over 100 µM, the TGI (RPMI-8226 leukemia) was over 100 µM and the TGI (SNB-19 CNS) was over 100 µM. It also gave a TGI (PC-3 prostate) of over 100 µM, a TGI (HCT-116 colon) of over 100 µM and a TGI (SF-295 CNS) of over 100 µM. For the same compound, the TGI (SK-OV-3 ovarian) was over 100 µM, the TGI (TK-10 renal) was over 100 µM and the TGI (DU-145 prostate) was over 100 µM. For the same compound, the TGI (UACC-62 melanoma) was over 100 µM, the TGI (SN12C renal) was over 100 µM and the TGI (UACC-257 melanoma) was over 100 µM. It also gave a TGI (HS 578T breast) of over 100 µM, a TGI (RXF 393 renal) of over 100 µM and a TGI (IGROV1 ovarian) of over 100 µM. It also gave a TGI (U251 CNS) of over 100 µM, a TGI (KM12 colon) of over 100 µM and a TGI (LOX IMVI melanoma) of over 100 µM. The TGI (A549 NSCLC) was over 100 µM, the TGI (HOP-62 NSCLC) was over 100 µM and the GI50 (T-47D breast) was over 100 µM. For the same compound, the TGI (T-47D breast) was over 100 µM, the TGI (OVCAR-4 ovarian) was over 100 µM and the TGI (OVCAR-8 ovarian) was over 100 µM. It also gave a TGI (HCC-2998 colon) of over 100 µM, a TGI (M14 melanoma) of over 100 µM and a TGI (NCI-H23 lung) of over 100 µM. It also gave a TGI (SF-539 CNS) of over 100 µM, a TGI (SNB-75 CNS) of over 100 µM and a TGI (SK-MEL-28 melanoma) of over 100 µM. The TGI (MDA-MB-231 breast) was over 100 µM, the TGI (MOLT-4 leukemia) was over 100 µM and the GI50 (CAKI-1 renal) was 24.4 µM and > 100 µM. The TGI (CAKI-1 renal) was over 100 µM, the TGI (SK-MEL-5 melanoma) was over 100 µM and the TGI (CCRF-CEM leukemia) was over 100 µM. The TGI (MALME-3M melanoma) was over 100 µM, the TGI (SR leukemia) was over 100 µM and the TGI (UO-31 renal) was over 100 µM. For the same compound, the TGI (OVCAR-5 ovarian) was over 100 µM, the TGI (K-562 leukemia) was over 100 µM and the TGI (ACHN renal) was over 100 µM. For the same compound, the TGI (HT29 colon) was over 100 µM, the TGI (SW-620 colon) was over 100 µM and the TGI (NCI-H226 lung) was over 100 µM. For the same compound, the TGI (HOP-92 NSCLC) was over 100 µM, the TGI (EKVX NSCLC) was over 100 µM and the TGI (MDA-N) was over 100 µM. For the same compound, the TGI (NCI-H460 lung) was over 100 µM, the TGI (HL-60(TB) leukemia) was over 100 µM and the TGI (OVCAR-3 ovarian) was over 100 µM. For the same compound, the GI50 (SK-MEL-2 melanoma) was 28.8 µM and > 100 µM, the TGI (SK-MEL-2 melanoma) was over 100 µM and the TGI (A498 renal) was over 100 µM. It also gave a TGI (NCI-H522 lung) of over 100 µM, a TGI (SF-268 CNS) of over 100 µM and a TGI (HCT-15 colon) of over 100 µM.

For C#CCOC(=O)[C@@H](C)c1ccc2cc(OC)ccc2c1, the TGI (786-0 renal) was over 100 µM, the TGI (BT-549 breast) was over 100 µM and the TGI (MCF7 breast) was over 100 µM. The TGI (RPMI-8226 leukemia) was over 100 µM, the TGI (SNB-19 CNS) was over 100 µM and the TGI (PC-3 prostate) was over 100 µM. For the same compound, the TGI (HCT-116 colon) was over 100 µM, the TGI (SF-295 CNS) was over 100 µM and the TGI (SK-OV-3 ovarian) was over 100 µM. For the same compound, the TGI (TK-10 renal) was over 100 µM, the TGI (DU-145 prostate) was over 100 µM and the TGI (UACC-62 melanoma) was over 100 µM. It also gave a TGI (SN12C renal) of over 100 µM, a TGI (UACC-257 melanoma) of over 100 µM and a TGI (COLO 205 colon) of over 100 µM. It also gave a TGI (HS 578T breast) of over 100 µM, a TGI (NCI/ADR-RES ovarian) of over 100 µM and a TGI (RXF 393 renal) of over 100 µM. The TGI (IGROV1 ovarian) was over 100 µM, the TGI (U251 CNS) was over 100 µM and the TGI (KM12 colon) was over 100 µM. It also gave a TGI (LOX IMVI melanoma) of over 100 µM, a TGI (HOP-62 NSCLC) of over 100 µM and a TGI (T-47D breast) of over 100 µM. It also gave a TGI (OVCAR-4 ovarian) of over 100 µM, a TGI (OVCAR-8 ovarian) of over 100 µM and a TGI (M14 melanoma) of over 100 µM. It also gave a TGI (NCI-H23 lung) of over 100 µM, a TGI (SF-539 CNS) of over 100 µM and a TGI (SNB-75 CNS) of over 100 µM. It also gave a TGI (MDA-MB-231 breast) of over 100 µM, a TGI (MOLT-4 leukemia) of over 100 µM and a TGI (CAKI-1 renal) of over 100 µM. It also gave a TGI (SK-MEL-5 melanoma) of over 100 µM, a TGI (CCRF-CEM leukemia) of over 100 µM and a TGI (SR leukemia) of over 100 µM. It also gave a TGI (UO-31 renal) of over 100 µM, a TGI (OVCAR-5 ovarian) of over 100 µM and a TGI (K-562 leukemia) of over 100 µM. For the same compound, the TGI (ACHN renal) was over 100 µM, the TGI (MDA-MB-435) was over 100 µM and the TGI (SW-620 colon) was over 100 µM. It also gave a TGI (NCI-H226 lung) of over 100 µM, a TGI (HOP-92 NSCLC) of over 100 µM and a TGI (EKVX NSCLC) of over 100 µM. It also gave a TGI (MDA-N) of over 100 µM, a TGI (NCI-H460 lung) of over 100 µM and a TGI (HL-60(TB) leukemia) of 35.8 µM. For the same compound, the TGI (SK-MEL-2 melanoma) was over 100 µM, the TGI (A498 renal) was over 100 µM and the TGI (NCI-H522 lung) was over 100 µM. For the same compound, the TGI (SF-268 CNS) was over 100 µM and the TGI (HCT-15 colon) was over 100 µM.

C(/C=C/Nc1ccc(-c2ccccc2)cc1)=Nc1ccc(-c2ccccc2)cc1 gave a TGI (786-0 renal) of over 100 µM, a TGI (BT-549 breast) of over 100 µM and a TGI (MCF7 breast) of over 100 µM. For the same compound, the TGI (RPMI-8226 leukemia) was over 100 µM, the TGI (SNB-19 CNS) was over 100 µM and the TGI (PC-3 prostate) was over 100 µM. It also gave a TGI (HCT-116 colon) of over 100 µM, a TGI (SF-295 CNS) of over 100 µM and a TGI (SK-OV-3 ovarian) of over 100 µM. It also gave a TGI (TK-10 renal) of over 100 µM, a TGI (DU-145 prostate) of over 100 µM and a TGI (UACC-62 melanoma) of over 100 µM. For the same compound, the TGI (SN12C renal) was over 100 µM, the TGI (UACC-257 melanoma) was over 100 µM and the TGI (COLO 205 colon) was over 100 µM. It also gave a TGI (HS 578T breast) of over 100 µM, a TGI (NCI/ADR-RES ovarian) of over 100 µM and a TGI (RXF 393 renal) of over 100 µM. For the same compound, the TGI (IGROV1 ovarian) was over 100 µM, the TGI (U251 CNS) was over 100 µM and the TGI (KM12 colon) was over 100 µM. It also gave a TGI (LOX IMVI melanoma) of over 100 µM, a TGI (A549 NSCLC) of over 100 µM and a TGI (HOP-62 NSCLC) of over 100 µM. For the same compound, the TGI (T-47D breast) was over 100 µM, the TGI (OVCAR-4 ovarian) was over 100 µM and the TGI (OVCAR-8 ovarian) was over 100 µM. The TGI (M14 melanoma) was over 100 µM, the TGI (NCI-H23 lung) was over 100 µM and the TGI (SF-539 CNS) was over 100 µM. It also gave a TGI (SNB-75 CNS) of over 100 µM, a TGI (SK-MEL-28 melanoma) of over 100 µM and a TGI (MDA-MB-231 breast) of over 100 µM. The TGI (MOLT-4 leukemia) was over 100 µM, the TGI (CAKI-1 renal) was over 100 µM and the TGI (SK-MEL-5 melanoma) was over 100 µM. It also gave a TGI (CCRF-CEM leukemia) of over 100 µM, a TGI (SR leukemia) of over 100 µM and a TGI (UO-31 renal) of over 100 µM. For the same compound, the TGI (OVCAR-5 ovarian) was over 100 µM, the TGI (K-562 leukemia) was over 100 µM and the TGI (ACHN renal) was over 100 µM. It also gave a TGI (MDA-MB-435) of over 100 µM, a TGI (HT29 colon) of over 100 µM and a TGI (SW-620 colon) of over 100 µM. It also gave a TGI (NCI-H226 lung) of over 100 µM, a TGI (HOP-92 NSCLC) of over 100 µM and a TGI (EKVX NSCLC) of over 100 µM. For the same compound, the TGI (MDA-N) was over 100 µM, the TGI (NCI-H460 lung) was over 100 µM and the TGI (HL-60(TB) leukemia) was over 100 µM. For the same compound, the TGI (OVCAR-3 ovarian) was over 100 µM, the TGI (SK-MEL-2 melanoma) was over 100 µM and the TGI (NCI-H522 lung) was over 100 µM. The TGI (SF-268 CNS) was over 100 µM and the TGI (HCT-15 colon) was over 100 µM.

Reference: PubChem BioAssay (NCI)
